Experimental data taken from US9993494B2, “Compositions and methods for treating fibrotic disease” (eFFECTOR Therapeutics, Inc., priority 2014, dated 2018).

Test system: normal human lung fibroblasts
Assay: Ribosomal profiling: translational efficiency in TGFβ-treated fibroblasts
Assay type: cell-based
Protocol: Ribosomal profiling allows for measurement of changes in transcription and translation on a genome-wide basis accompanying TGFβ-dependent transformation of fibroblasts to myofibroblasts. Ribosomal profiles of the TGFβ-treated fibroblasts from Example 1 (about 6×10^6 cells/10 cm plate) were prepared and analyzed for changes in translational efficiencies with respect to potential disease-associated cellular changes accompanying this TGFβ-induced transformation.
Briefly, cells were washed with cold PBS supplemented with cycloheximide and lysed with 1× mammalian cell lysis buffer for 10 minutes on ice. Lysates were clarified by centrifugation for 10 minutes at 14,000 rpm and supernatants were collected. Cell lysates were processed to generate ribosomal protected fragments and total mRNA according to the instructions included with the ARTseq Ribosome Profiling Kit (Illumina, San Diego, Calif.). Sequencing of total RNA (RNA) and of ribosome-protected fragments of RNA (RPF) was carried out using RNA-Seq methodology according to the manufacturer's instructions (Illumina). To analyze the ribosomal profiles, RNA-Seq reads were processed with tools from the FASTX-Toolkit (fastq_quality_trimmer, fastx_clipper and fastx_trimmer). Unprocessed and processed reads were evaluated for a variety of quality measures using FastQC, and processed reads were mapped to the human genome using TopHat (see, e.g., Trapnell et al., Bioinformatics 25:1105, 2009). Gene-by-gene assessment of the number of fragments strictly and uniquely mapping to the coding region of each gene was conducted using HTSeq-count, a component of the HTSeq package. […] Genes with low counts in either RPF or RNA were excluded from differential analyses. Pathway and network analyses of differential data were conducted using Ingenuity Pathway Analysis (IPA).

TGFβ
Log2 TE EEF1A1 (ENSG00000156508, 5 replicates): 1.851 | change in translational profile of EEF1A1 caused by TGFβ (ENSG00000156508, Control vs. TGFβ): E (E = <1.5 to 2.5) | Log2 TE NRG1 (ENSG00000157168, 5 replicates): 1.162 | change in translational profile of NRG1 caused by TGFβ (ENSG00000157168, Control vs. TGFβ): D (D = <1.0 to 1.5) | change in translational profile of ADAMTS4 caused by TGFβ (ENSG00000158859, Control vs. TGFβ): D (D = <1.0 to 1.5) | Log2 TE RPL8 (ENSG00000161016, 5 replicates): 1.353 | change in translational profile of RPL8 caused by TGFβ (ENSG00000161016, Control vs. TGFβ): E (E = <1.5 to 2.5) | Log2 TE RPL26 (ENSG00000161970, 5 replicates): 1.655 | change in translational profile of RPL26 caused by TGFβ (ENSG00000161970, Control vs. TGFβ): E (E = <1.5 to 2.5) | Log2 TE RPL29 (ENSG00000162244, 5 replicates): 1.589 | change in translational profile of RPL29 caused by TGFβ (ENSG00000162244, Control vs. TGFβ): E (E = <1.5 to 2.5) | change in translational profile of CAMK2N1 caused by TGFβ (ENSG00000162545, Control vs. TGFβ): C (C = <−1.0 to −1.5) | Log2 TE NFIA (ENSG00000162599, 5 replicates): −1.2934 | Log2 TE ARHGAP25 (ENSG00000163219, 5 replicates): 1.166 | change in translational profile of IGFBP7 caused by TGFβ (ENSG00000163453, Control vs. TGFβ): E (E = <1.5 to 2.5) | Log2 TE RPL22L1 (ENSG00000163584, 5 replicates): 1.012 | change in translational profile of RPL22L1 caused by TGFβ (ENSG00000163584, Control vs. TGFβ): D (D = <1.0 to 1.5) | Log2 TE PTX3 (ENSG00000163661, 5 replicates): −1.576 | Log2 TE RPL9 (ENSG00000163682, 5 replicates): 1.613 | change in translational profile of RPL9 caused by TGFβ (ENSG00000163682, Control vs. TGFβ): E (E = <1.5 to 2.5) | Log2 TE TKT (ENSG00000163931, 5 replicates): 1.142 | Log2 TE GUCY1A3 (ENSG00000164116, 5 replicates): −1.932 | Log2 TE RHOBTB3 (ENSG00000164292, 5 replicates): −1.529 | change in translational profile of RHOBTB3 caused by TGFβ (ENSG00000164292, Control vs. TGFβ): B (B = <−1.5 to −2.5) | Log2 TE TLR3 (ENSG00000164342, 5 replicates): −1.371 | Log2 TE RPS14 (ENSG00000164587, 5 replicates): 1.684 | change in translational profile of HCN1 caused by TGFβ (ENSG00000164588, Control vs. TGFβ): D (D = <1.0 to 1.5) | Log2 TE WBSCR27 (ENSG00000165171, 5 replicates): 1.116 | change in translational profile of RPL36AL caused by TGFβ (ENSG00000165502, Control vs. TGFβ): D (D = <1.0 to 1.5) | Log2 TE RPL27A (ENSG00000166441, 5 replicates): 2.09 | change in translational profile of RPL27A caused by TGFβ (ENSG00000166441, Control vs. TGFβ): F (F = >2.5) | change in translational profile of RP11-382A20.3.1 caused by TGFβ (ENSG00000166503, Control vs. TGFβ): C (C = <−1.0 to −1.5) | change in translational profile of ANKDD1A caused by TGFβ (ENSG00000166839, Control vs. TGFβ): C (C = <−1.0 to −1.5) | Log2 TE RPL13 (ENSG00000167526, 5 replicates): 1.465 | change in translational profile of RPL13 caused by TGFβ (ENSG00000167526, Control vs. TGFβ): E (E = <1.5 to 2.5) | Log2 TE EEF2 (ENSG00000167658, 5 replicates): 2.323 | change in translational profile of EEF2 caused by TGFβ (ENSG00000167658, Control vs. TGFβ): F (F = >2.5) | Log2 TE RPSA (ENSG00000168028, 5 replicates): 1.359 | Log2 TE TET2 (ENSG00000168769, 5 replicates): 1.377 | Log2 TE ZNF608 (ENSG00000168916, 5 replicates): −1.59 | Log2 TE SLC25A6 (ENSG00000169100, 5 replicates): 1.909 | Log2 TE THBS3 (ENSG00000169231, 5 replicates): 1.188 | Log2 TE CA5B (ENSG00000169239, 5 replicates): −1.791 | change in translational profile of CA5B caused by TGFβ (ENSG00000169239, Control vs. TGFβ): B (B = <−1.5 to −2.5) | Log2 TE KIAA1024 (ENSG00000169330, 5 replicates): 2.216 | change in translational profile of KIAA1024 caused by TGFβ (ENSG00000169330, Control vs. TGFβ): F (F = >2.5) | Log2 TE CRTAP (ENSG00000170275, 5 replicates): 1.022 | Log2 TE TMC7 (ENSG00000170537, 5 replicates): 1.745 | Log2 TE MURC (ENSG00000170681, 5 replicates): 3.678 | change in translational profile of MURC caused by TGFβ (ENSG00000170681, Control vs. TGFβ): F (F = >2.5) | change in translational profile of HTRA3 caused by TGFβ (ENSG00000170801, Control vs. TGFβ): C (C = <−1.0 to −1.5) | Log2 TE RPS9 (ENSG00000170889, 5 replicates): 1.6139 | Log2 TE PDGFD (ENSG00000170962, 5 replicates): −1.029 | Log2 TE PDE7B (ENSG00000171408, 5 replicates): −2.782 | change in translational profile of PDE7B caused by TGFβ (ENSG00000171408, Control vs. TGFβ): A (A = <−2.5) | Log2 TE ZNF581 (ENSG00000171425, 5 replicates): 1.45 | Log2 TE LPAR3 (ENSG00000171517, 5 replicates): −2.387 | change in translational profile of LPAR3 caused by TGFβ (ENSG00000171517, Control vs. TGFβ): A (A = <−2.5) | Log2 TE CTPS (ENSG00000171793, 5 replicates): 1.08
